The target of the experiment is T1, human β-Secretase (soluble part, AA1-AA460; sBACE-Fc) (Homo sapiens, UniProt P56817).
T1 construct: The soluble part of the human β-Secretase (AA1-AA460) was cloned into the ASP2-Fc10-1-IRES-GFP-neoK mammalian expression vector; made in house
Nature of the experiment: TR-FRET assay. It is filed as biochemical. The following applies: substrate (Europium)CEVNLDAEFK(Qsy7) 100 nM, pH 4.5, 15 min at RT; read-out: IC50 (nM) in TR-FRET assay. How it is done: The enzyme used in the IGEN Cleavage-, Fluorescent-, TR-FRET- and BiaCore assays is described as follows:
The soluble part of the human β-Secretase (AA1-AA460) was cloned into the ASP2-Fc10-1-IRES-GFP-neoK mammalian expression vector. The gene was fused to the Fc domain of IgG1 (affinity tag) and stably cloned into HEK 293 cells. Purified sBACE-Fc is stored in Tris buffer, pH 9.2 and has a purity of 95%.
Enzyme was diluted to 6 μg/mL and the substrate (Europium)[…](Qsy7) to 200 nM in reaction buffer (NaAcetate, chaps, triton x-100, EDTA pH 4.5). Compounds were diluted to the desired concentration in dimethyl sulfoxide (final dimethyl sulfoxide concentration in assay is 5%). […] Enzyme (9 μL) and 1 μL of compound in dimethyl sulfoxide was added to the plate, mixed and pre-incubated for 10 min. Substrate (10 μL) was added and the reaction proceeded in the dark for 15 min at RT. The reaction was stopped with the addition of 7 μL NaAcetate, pH 9. The fluorescence of the product was measured on a Victor II plate reader with an excitation wavelength of 340 nm and an emission wavelength of 615 nm. […] The dimethyl sulfoxide control defined the 100% activity level and 0% activity was defined by exclusion of the enzyme (using reaction buffer instead).
For orientation: Time-resolved FRET reads energy transfer from a long-lived donor to a nearby acceptor.

Each structure is given as a SMILES string. Structures can show the parent of a compound that is named as a salt.

T1 sequence (P56817 22-460): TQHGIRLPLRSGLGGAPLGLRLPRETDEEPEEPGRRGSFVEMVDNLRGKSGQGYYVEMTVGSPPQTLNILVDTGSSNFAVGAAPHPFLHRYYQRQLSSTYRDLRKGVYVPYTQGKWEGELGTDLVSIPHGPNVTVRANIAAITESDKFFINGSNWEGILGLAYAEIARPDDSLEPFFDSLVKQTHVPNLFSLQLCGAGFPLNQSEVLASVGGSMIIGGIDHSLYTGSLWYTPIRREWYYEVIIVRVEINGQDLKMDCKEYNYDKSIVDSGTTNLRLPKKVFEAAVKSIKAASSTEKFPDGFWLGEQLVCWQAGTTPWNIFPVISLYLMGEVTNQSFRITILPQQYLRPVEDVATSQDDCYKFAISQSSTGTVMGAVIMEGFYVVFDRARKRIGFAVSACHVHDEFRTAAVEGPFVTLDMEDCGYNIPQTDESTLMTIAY

In the case of `CCCS(=O)(=O)Oc1ccc(C2(c3ccc(F)c(-c4cncc(OC)c4)c3)N=C(N)N(C)C2=O)cc1` (stereo not shown) [Example 129, 4-{2-Amino-4-[4-fluoro-3-(5-methoxypyridin-3-yl)phenyl]-1-methyl-5-oxo-4,5-dihydro-1H-imidazol-4-yl}phenyl propane-1-sulfonate hydrochloride], the IC50 (as a rule, the concentration needed to halve the response being measured) worked out at 35 nM. The value for `CCCS(=O)(=O)Oc1cccc(C2(c3ccc(F)c(-c4cncc(OC)c4)c3)N=C(N)N(C)C2=O)c1` (stereo not shown) [Example 130, 3-{2-Amino-4-[4-fluoro-3-(5-methoxypyridin-3-yl)phenyl]-1-methyl-5-oxo-4,5-dihydro-1H-imidazol-4-yl}phenyl propane-1-sulfonate hydrochloride] was 59 nM; that for `CN1C(=O)C(c2cccc(OS(=O)(=O)c3ccccc3)c2)(c2ccc(F)c(-c3cncnc3)c2)N=C1N` (stereo not shown) [Example 133, 3-[2-Amino-4-(4-fluoro-3-pyrimidin-5-ylphenyl)-1-methyl-5-oxo-4,5-dihydro-1H-imidazol-4-yl]phenyl benzenesulfonate hydrochloride] was 33 nM. The value for `CN1C(=O)C(c2ccc(OS(=O)(=O)C(F)(F)F)cc2)(c2ccc(F)c(-c3cncc(Cl)c3)c2)N=C1N` (stereo not shown) [Example 140, 4-{2-Amino-4-[3-(5-chloropyridin-3-yl)-4-fluorophenyl]-1-methyl-5-oxo-4,5-dihydro-1H-imidazol-4-yl}phenyl trifluoromethanesulfonate 0.75 acetate] was 116 nM.

As for `CN1C(=O)C(c2ccc(OS(=O)(=O)C(F)(F)F)cc2)(c2ccc(F)c(-c3cccnc3)c2)N=C1N` (stereo not shown) [Example 141, 4-[2-Amino-4-(4-fluoro-3-pyridin-3-ylphenyl)-1-methyl-5-oxo-4,5-dihydro-1H-imidazol-4-yl]phenyl trifluoromethanesulfonate 0.5 acetate], the IC50 turned out to be 107 nM. The value for `CN1C(=O)C(c2ccc(OS(=O)(=O)C(F)(F)F)cc2)(c2ccc(F)c(-c3cccnc3F)c2)N=C1N` (stereo not shown) [Example 142, 4-{2-Amino-4-[4-fluoro-3-(2-fluoropyridin-3-yl)phenyl]-1-methyl-5-oxo-4,5-dihydro-1H-imidazol-4-yl}phenyl trifluoromethanesulfonate 0.75 acetate] was 140 nM; that for `CN1C(=O)C(c2ccc(OS(=O)(=O)C(F)(F)F)cc2)(c2ccc(F)c(-c3cnccn3)c2)N=C1N` (stereo not shown) [Example 143, 4-[2-Amino-4-(4-fluoro-3-pyrazin-2-ylphenyl)-1-methyl-5-oxo-4,5-dihydro-1H-imidazol-4-yl]phenyl trifluoromethanesulfonate 0.5 acetate] was 214 nM; that for `CN1C(=O)C(c2ccc(OS(=O)(=O)C(F)(F)F)cc2)(c2ccc(F)c(-c3cncc(C#N)c3)c2)N=C1N` (stereo not shown) [Example 144, 4-{2-Amino-4-[3-(5-cyanopyridin-3-yl)-4-fluorophenyl]-1-methyl-5-oxo-4,5-dihydro-1H-imidazol-4-yl}phenyl trifluoromethanesulfonate 0.5 acetate] was 321 nM. The value for `CN1C(=O)C(c2ccc(OS(=O)(=O)C(F)(F)F)cc2)(c2ccc(F)c(-c3cncc(F)c3)c2)N=C1N` (stereo not shown) [Example 145, 4-{2-amino-4-[4-fluoro-3-(5-fluoropyridin-3-yl)phenyl]-1-methyl-5-oxo-4,5-dihydro-1H-imidazol-4-yl}phenyl trifluoromethanesulfonate 0.5 acetate] was 150 nM; that for `COc1cncc(-c2cc(C3(c4ccc(OS(=O)(=O)C(F)(F)F)cc4)N=C(N)N(C)C3=O)ccc2F)c1` (stereo not shown) [Example 148, 4-{2-Amino-4-[4-fluoro-3-(5-methoxypyridin-3-yl)phenyl]-1-methyl-5-oxo-4,5-dihydro-1H-imidazol-4-yl}phenyl trifluoromethanesulfonate 0.5 acetate] was 40 nM. In the case of `CN1C(=O)C(c2ccc(OS(=O)(=O)C(F)(F)F)cc2)(c2ccc(F)c(-c3cc(Cl)ccn3)c2)N=C1N` (stereo not shown) [Example 149, 4-{2-Amino-4-[3-(4-chloropyridin-2-yl)-4-fluorophenyl]-1-methyl-5-oxo-4,5-dihydro-1H-imidazol-4-yl}phenyl trifluoromethanesulfonate 0.75 acetate], the IC50 came out at 163 nM. Consider `CCN1C(=O)C(c2ccc(OS(C)(=O)=O)cc2)(c2ccc(F)c(-c3cc(Cl)cc(Cl)c3)c2)N=C1N` (stereo not shown) [Example 161, 4-[2-Amino-4-(3′,5′-dichloro-6-fluorobiphenyl-3-yl)-1-ethyl-5-oxo-4,5-dihydro-1H-imidazol-4-yl]phenyl methanesulfonate], for which the IC50 worked out at 1680 nM.

Turning to `CCN1C(=O)C(c2ccc(OS(C)(=O)=O)cc2)(c2ccc(F)c(-c3cncnc3)c2)N=C1N` (stereo not shown) [Example 162, 4-[2-Amino-4-(4-fluoro-3-pyrimidin-5-ylphenyl)-1-ethyl-5-oxo-4,5-dihydro-1H-imidazol-4-yl]phenyl methanesulfonate], the IC50 was found to be 682 nM.

`CCN1C(=O)C(c2ccc(OS(C)(=O)=O)cc2)(c2ccc(F)c(-c3cccc(OC)c3)c2)N=C1N` (stereo not shown) [Example 163, 4-[2-Amino-4-(6-fluoro-3′-methoxybiphenyl-3-yl)-1-ethyl-5-oxo-4,5-dihydro-1H-imidazol-4-yl]phenyl methanesulfonate 0.25acetate]: the IC50 stood at 395 nM. Turning to `CCN1C(=O)C(c2ccc(OS(C)(=O)=O)cc2)(c2ccc(F)c(-c3cccc(Cl)c3)c2)N=C1N` (stereo not shown) [Example 164, 4-[2-Amino-4-(3′-chloro-6-fluorobiphenyl-3-yl)-1-ethyl-5-oxo-4,5-dihydro-1H-imidazol-4-yl]phenyl methanesulfonate], the IC50 was determined as 912 nM. Next, `CCCN1C(=O)C(c2ccc(OS(C)(=O)=O)cc2)(c2ccc(F)c(-c3cncnc3)c2)N=C1N` (stereo not shown) [Example 165, 4-[2-Amino-4-(4-fluoro-3-pyrimidin-5-ylphenyl)-1-propyl-5-oxo-4,5-dihydro-1H-imidazol-4-yl]phenyl methanesulfonate 0.5 acetate]: 589 nM; `COc1ccc(C#N)c(-c2cc(C3(c4ccc(OS(C)(=O)=O)cc4)N=C(N)N(C)C3=O)ccc2F)c1` (stereo not shown) [Example 167, 4-[2-Amino-4-(2′-cyano-6-fluoro-5′-methoxybiphenyl-3-yl)-1-methyl-5-oxo-4,5-dihydro-1H-imidazol-4-yl]phenyl methanesulfonate]: 46 nM.

As to `COc1ccc(OC(F)(F)F)c(-c2cc(C3(c4ccc(OS(C)(=O)=O)cc4)N=C(N)N(C)C3=O)ccc2F)c1` (stereo not shown) [Example 168, 4-{2-Amino-4-[6-fluoro-5′-methoxy-2′-(trifluoromethoxy)biphenyl-3-yl]-1-methyl-5-oxo-4,5-dihydro-1H-imidazol-4-yl}phenyl methanesulfonate], the IC50 came to 349 nM.

For the compound `CN1C(=O)C(c2ccc(OS(C)(=O)=O)cc2)(c2ccc(F)c(-c3cnccc3Cl)c2)N=C1N` (stereo not shown) [Example 169, 4-{2-amino-4-[3-(4-chloropyridin-3-yl)-4-fluorophenyl]-1-methyl-5-oxo-4,5-dihydro-1H-imidazol-4-yl}phenyl methanesulfonate hydrochloride], the IC50 came out at 171 nM. The value for `CN1C(=O)C(c2cccc(OS(C)(=O)=O)c2)(c2cccc(-c3cnccc3Cl)c2)N=C1N` (stereo not shown) [Example 170, 3-{2-Amino-4-[3-(4-chloropyridin-3-yl)phenyl]-1-methyl-5-oxo-4,5-dihydro-1H-imidazol-4-yl}phenyl methanesulfonate hydrochloride] was 651 nM; that for `COc1ccc(C#N)c(-c2cccc(C3(c4cccc(OS(C)(=O)=O)c4)N=C(N)N(C)C3=O)c2)c1` (stereo not shown) [Example 176, 3-[2-Amino-4-(2′-cyano-5′-methoxybiphenyl-3-yl)-1-methyl-5-oxo-4,5-dihydro-1H-imidazol-4-yl]phenyl methanesulfonate hydrochloride] was 148 nM; that for `COc1ccc(C#N)c(-c2cc(C3(c4cccc(OS(C)(=O)=O)c4)N=C(N)N(C)C3=O)ccc2F)c1` (stereo not shown) [Example 177, 3-[2-Amino-4-(2′-cyano-6-fluoro-5′-methoxybiphenyl-3-yl)-1-methyl-5-oxo-4,5-dihydro-1H-imidazol-4-yl]phenyl methanesulfonate hydrochloride] was 100 nM. Regarding `CN1C(=O)C(c2ccc(OS(=O)(=O)c3ccccc3)cc2)(c2ccc(F)c(Br)c2)N=C1N` (stereo not shown) [Example 184, 4-[2-Amino-4-(3-bromo-4-fluorophenyl)-1-methyl-5-oxo-4,5-dihydro-1H-imidazol-4-yl]phenyl benzenesulfonate], the IC50 came out at 156 nM. For the compound `CN1C(=O)C(c2ccc(OS(=O)(=O)c3ccccc3)cc2)(c2ccc(F)c(-c3cncnc3)c2)N=C1N` (stereo not shown) [Example 185, 4-[2-Amino-4-(4-fluoro-3-pyrimidin-5-ylphenyl)-1-methyl-5-oxo-4,5-dihydro-1H-imidazol-4-yl]phenyl benzenesulfonate hydrochloride], the IC50 stood at 19 nM. On to `CN1C(=O)C(c2ccc(OS(=O)(=O)C(F)(F)F)cc2)(c2ccc(F)c(-c3cncs3)c2)N=C1N` (stereo not shown) [Example 187, 4-{2-Amino-4-[4-fluoro-3-(1,3-thiazol-5-yl)phenyl]-1-methyl-5-oxo-4,5-dihydro-1H-imidazol-4-yl}phenyl trifluoromethanesulfonate hydrochloride], for which the IC50 is 459 nM.

The values are drawn from patent US20080176862A1, “New Compounds 617” (ASTRAZENECA AB, priority 2006, published 2008).
